Assays:
μ-opioid receptor = molecular target: T1, μ-opioid receptor (Homo sapiens, UniProt P35372); assay: Immunofluorescence staining of μ-opioid receptor expression after prolonged administration; assay type: cell-based; details: prolonged DAMGO treatment group (500 nM, 8 days)
T1 construct: confirm that the presence of neuron populations that express μ-opioid receptors; endogenous in cells; host or cells: flattened spinal cord organoids (fSCOs) derived from WA09 cells
Method: To first validate that the flattened organoids could be utilized to model pain relief, first immunofluorescence staining was used to confirm that the presence of neuron populations that express μ-opioid receptors. Sectioned samples were placed onto charged glass slides and washed three times with 1×PBS. The samples were then treated with 3N hydrochloric acid (HCl) for 15 minutes for antigen retrieval. Following HCl treatment, the samples were washed again twice with 1×PBS and subjected to blocking (0.3% Triton-X100, 5% normal goat serum in 1×PBS) for 1 hour, followed by primary antibody incubation in a humidified chamber at 4° C. overnight. The samples were then washed 3 times with 1×PBS followed by secondary antibody incubation at room temperature for 1 hour before being washed and coverslipped with gold anti-fade mounting medium containing DAPI (Invitrogen).

[1] = system: flattened spinal cord organoids (fSCOs); assay: MEA mean firing rate of flattened spinal cord organoids after capsaicin and short-term DAMGO; assay type: cell-based, human
Method: (§1) After 10 days of growing, the flattened organoids as developed in accordance with the present disclosure were put into contact with bottom electrodes for measuring electrical and neuron activity. Recording of the spinal cord organoids' electrical activity was performed by using the Axion Mestro Edge (Axion inc). The spinal cord organoids were kept at 37° C. maintained by an internal heater and infused with 5% CO2. To determine the mean firing rate of a spinal cord organoid, the 3-minute MEA recording was repeated 5 times. The final mean firing rate of the organoid was calculated as the average mean firing rate of the 3 most consistent recordings among the 5 recordings. To reduce the variation brought by adding substance, the medium was also refreshed before measuring mean firing rate baseline. The substance was first diluted into ScM IV at 2× of the desired concentration, then half of the medium was replaced with the 2× concentrated solution to reach the desired concentration.
Capsaicin, a transient receptor potential cation channel subfamily V member 1 (TRPV1) agonist, was applied to fSCOs to model pain responses. […] Next, capsaicin and different concentrations of DAMGO together to test the pain relief effects of different opioids doses. […] As the opioids doses increase, the fSCOs' firing rates decreased, and the organoids reached minimal firing rates when the concentration was higher than 1 μM.

[2] = system: flattened spinal cord organoids (fSCOs); assay: Chronic opioid induced hyperalgesia model: 8-day DAMGO administration, MEA mean firing rate response to capsaicin; assay type: cell-based, human
Method: as §1
The fSCOs of the present disclosure were exposed to prolonged opioid administration to test the tolerance of the organoids to opioid induced hyperalgesia. The fSCOs were treated with DAMGO (500 nM) for 8 days and their responses to pain modulators were tested every other day. […] Organoids treated together with DAMGO and Naloxone, a μ-opioid receptor antagonist, were also tested to determine whether the Naloxone could reduce the opioid induced hyperalgesia.

T1 sequence (P35372 whole entry): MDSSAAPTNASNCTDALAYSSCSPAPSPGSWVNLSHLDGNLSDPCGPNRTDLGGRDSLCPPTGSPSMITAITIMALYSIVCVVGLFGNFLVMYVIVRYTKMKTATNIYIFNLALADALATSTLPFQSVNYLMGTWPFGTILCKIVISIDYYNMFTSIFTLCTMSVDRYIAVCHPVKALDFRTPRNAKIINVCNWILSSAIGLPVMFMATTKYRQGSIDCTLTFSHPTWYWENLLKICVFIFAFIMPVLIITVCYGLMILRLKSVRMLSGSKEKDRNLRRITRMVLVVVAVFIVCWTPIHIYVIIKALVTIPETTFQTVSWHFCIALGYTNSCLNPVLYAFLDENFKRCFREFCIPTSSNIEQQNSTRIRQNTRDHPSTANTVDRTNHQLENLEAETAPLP

C[C@@H](NC(=O)[C@@H](N)Cc1ccc(O)cc1)C(=O)NCC(=O)N(C)[C@@H](Cc1ccccc1)C(=O)NCCO [DAMGO]
μ-opioid receptor expression (μ-opioid receptor): downregulated | % change From Baseline in Mean Firing Rate (Hz) ([1]; Capsaicin + 100 nM DAMGO): +0.3% | % change From Baseline in Mean Firing Rate (Hz) ([1]; Capsaicin + 500 nM DAMGO): −0.2% | % change From Baseline in Mean Firing Rate (Hz) ([1]; Capsaicin + 1 uM DAMGO): −0.42% | % change From Baseline in Mean Firing Rate (Hz) ([1]; Capsaicin + 10 uM DAMGO): −0.4% | DAMGO concentration at which organoids reached minimal firing rates ([1]; capsaicin together with DAMGO): higher than 1 μM | firing rate of spinal cord organoids versus baseline ([1]; capsaicin together with minimal dose of DAMGO (100 nM)): dropped below baseline | firing rate versus baseline after capsaicin plus low dose of DAMGO (100 nM) ([2]; after 8-day administration, Ctrl and DAMGO+Naloxone group): reduce the firing rate below baseline | DAMGO needed to eliminate pain activity and return to activity baseline ([2]; after 8-day administration, organoids in the DAMGO group (500 nM)): more than 1 μM | mean firing rate increase after capsaicin treatment ([2]; day 6 of DAMGO (500 nM) treatment, control 48%): 73% | mean firing rate increase after capsaicin treatment ([2]; day 8 of DAMGO (500 nM) treatment, control 39%): 93% | mean firing rate increase after capsaicin treatment versus control group ([2]; first 4 days of DAMGO (500 nM) treatment): no significant difference

COc1cc(CNC(=O)CCCC/C=C/C(C)C)ccc1O [Capsaicin]
% change From Baseline in Mean Firing Rate (Hz) ([1]; Capsaicin): −0.1% | increase of mean firing rate of organoids after stimulation by capsaicin ([1]; capsaicin alone, fSCOs, MEA): 35.4%

— patent US20250290032A1, “DEVICE AND METHODS FOR ENGINEERING AND MEASURING FLATTENED 3D CELL CULTURES” (The Trustees of Indiana University, priority 2022, published 2025)
